Assay results published in patent US8846704B2, “Thiopyrimidine-based compounds and uses thereof” (YM Biosciences Austraila Pty Ltd, priority 2007, dated 2014).

Legend:
CTLL2 = assay: Cellular screening, CTLL2 cells, Alamar Blue; format: cell-based; conditions: Mus musculus, CTLL-2, read-out: CTLL2 IC50_nM
Outline: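 CTLL2 cells in late log phase incubated with compound for 40 hr at 37° C, 5% CO2. Viability then read at 544 nm after a further 4-6 hours with Alamar Blue.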

human JAK2 = target: T1, human JAK2 (Homo sapiens, UniProt O60674); assay: Alphascreen tyrosine kinase enzyme assay, JAK2 kinase domain; format: biochemical; conditions: read-out: JAK2 IC50_nM
T1 construct: The kinase domain of human JAK2 was amplified; GST (N); made in house; host or cells: Sf9 insect cells (baculovirus)
Outline: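 JAK2 kinase domain expressed in baculovirus/Sf9 and glutathione-affinity purified. Compounds (final […]) pre-incubated 20 min with enzyme in 10 mM HEPES pH 7.5, MgCl2, NaCl, vanadate, 0.1% Tween 20.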

human JAK3 = target: T2, human JAK3 (Homo sapiens, UniProt P52333); assay: Alphascreen tyrosine kinase enzyme assay, JAK3 kinase domain; format: biochemical; conditions: read-out: JAK3 IC50_nM
T2 construct: The kinase domain of human JAK3 was amplified; GST (N); made in house; host or cells: Sf9 insect cells (baculovirus)
Outline: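 GST-affinity-purified human JAK3 kinase domain (baculovirus/Sf9) was pre-incubated 20 min with compound ([…]) in HEPES pH 7.5 buffer with MgCl2, vanadate and Tween 20. Biotinylated peptide substrate ([…]) and ATP were then added; phosphotyrosine was detected by AlphaScreen PY100 acceptor and streptavidin donor beads after 2–3 h.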

BaF3 wild-type cells = assay: Cellular screening, BaF3 wild-type cells, Alamar Blue; format: cell-based; conditions: Mus musculus, 40 hr, read-out: BAF3wt IC50_nM
Outline: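 Cells were cultured in DMEM with 10% FCS and 10% WEHI 3B conditioned medium, and suspensions were prepared at 1.1× final (50,000–200,000 cells/mL). Compounds from 20 μM dilution plates were added at 10× final and incubated for 40 hr at 37° C, 5% CO2. Alamar Blue was then added for 4–6 hours and read at 544 nm.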

[1] = target: T3, BaF3 TELJAK2 cells (BafT_J2) (Homo sapiens, UniProt O60674); assay: Cellular screening, BaF3 TEL:JAK2 cells, Alamar Blue; format: cell-based; conditions: 40 hr, read-out: BafT_J2 IC50_nM
T3 construct: fused on or other part: TEL (ETV6) N-terminal part, coding nucleotides 1-487, serves as the oligomerising partner; It is fused through a Sal I site to the JAK2 kinase domain and expressed from pTRE2 in BaF3 cells bearing pTET-off; P41212 (Transcription factor ETV6)
Outline: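 Tet-off BaF3 cells carrying a TEL (nt 1-487)–JAK2 kinase-domain fusion, grown factor-independently in DMEM with 10% Tet-approved FBS without WEHI 3B medium. Compounds were diluted to 20 μM in screening plates, and cells (50,000–200,000 cell/mL at 1.1×) were incubated 40 hr at 37 °C, 5% CO2. Alamar Blue was then added for 4-6 hours; read at 544 nm.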

T3 sequence (O60674 whole entry, change not shown, the tested form may be a part): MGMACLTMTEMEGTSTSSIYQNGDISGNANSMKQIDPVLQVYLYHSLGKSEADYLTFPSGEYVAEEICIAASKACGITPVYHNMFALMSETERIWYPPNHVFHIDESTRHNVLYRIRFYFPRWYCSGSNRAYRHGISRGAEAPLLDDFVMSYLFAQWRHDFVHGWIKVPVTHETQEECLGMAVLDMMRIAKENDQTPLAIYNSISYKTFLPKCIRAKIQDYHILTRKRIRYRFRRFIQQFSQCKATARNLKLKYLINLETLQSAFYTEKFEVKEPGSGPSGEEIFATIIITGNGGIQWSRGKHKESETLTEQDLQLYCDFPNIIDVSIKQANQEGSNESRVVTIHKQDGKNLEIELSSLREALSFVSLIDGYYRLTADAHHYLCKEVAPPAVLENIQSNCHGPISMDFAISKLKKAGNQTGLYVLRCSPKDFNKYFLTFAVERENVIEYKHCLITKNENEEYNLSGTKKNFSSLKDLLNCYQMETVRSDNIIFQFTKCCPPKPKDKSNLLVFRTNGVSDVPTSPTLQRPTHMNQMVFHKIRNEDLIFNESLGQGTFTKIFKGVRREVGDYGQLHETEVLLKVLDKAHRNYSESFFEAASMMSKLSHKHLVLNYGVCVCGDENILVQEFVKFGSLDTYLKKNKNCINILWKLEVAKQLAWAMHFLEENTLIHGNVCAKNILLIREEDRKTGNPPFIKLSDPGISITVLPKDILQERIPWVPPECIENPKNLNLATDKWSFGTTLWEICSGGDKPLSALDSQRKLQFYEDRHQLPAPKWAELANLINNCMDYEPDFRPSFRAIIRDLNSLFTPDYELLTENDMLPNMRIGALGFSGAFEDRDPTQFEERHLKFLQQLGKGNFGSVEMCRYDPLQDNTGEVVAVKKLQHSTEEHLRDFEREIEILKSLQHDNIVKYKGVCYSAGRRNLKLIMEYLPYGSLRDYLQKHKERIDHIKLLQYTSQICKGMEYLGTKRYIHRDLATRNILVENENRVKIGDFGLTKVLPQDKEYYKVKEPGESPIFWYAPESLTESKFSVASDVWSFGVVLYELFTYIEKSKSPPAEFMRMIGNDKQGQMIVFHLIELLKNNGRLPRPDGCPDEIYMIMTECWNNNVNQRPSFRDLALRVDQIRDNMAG
T1 sequence (O60674 849-1124 limits assumed): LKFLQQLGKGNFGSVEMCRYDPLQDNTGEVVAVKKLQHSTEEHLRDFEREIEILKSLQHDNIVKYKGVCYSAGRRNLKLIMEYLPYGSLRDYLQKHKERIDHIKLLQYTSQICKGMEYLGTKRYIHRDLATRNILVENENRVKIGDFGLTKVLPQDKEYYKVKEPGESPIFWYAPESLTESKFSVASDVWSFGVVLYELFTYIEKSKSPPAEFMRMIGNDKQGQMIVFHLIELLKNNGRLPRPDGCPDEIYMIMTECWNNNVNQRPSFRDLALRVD
T2 sequence (P52333 822-1111 limits assumed): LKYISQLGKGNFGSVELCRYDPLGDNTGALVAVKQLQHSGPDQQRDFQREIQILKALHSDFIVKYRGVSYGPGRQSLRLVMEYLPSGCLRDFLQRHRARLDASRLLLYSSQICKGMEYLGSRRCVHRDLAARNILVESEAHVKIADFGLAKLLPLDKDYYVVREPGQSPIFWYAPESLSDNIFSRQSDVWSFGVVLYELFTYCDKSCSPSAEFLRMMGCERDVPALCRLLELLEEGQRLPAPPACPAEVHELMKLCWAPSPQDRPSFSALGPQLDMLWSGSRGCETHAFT

SMILES	IC50 (CTLL2) [µM]	IC50 (human JAK2) [nM]	IC50 (human JAK3) [nM]	IC50 (BaF3 wild-type cells) [µM]	GI50 [1] [µM]
C=CC(=O)Nc1ccc(Sc2nc(Nc3cccc(O)c3)ncc2C)cc1 [Compound 281, N-(4-(2-(3-hydroxyphenylao)-5-methylpyrimidin-4-ylthio)phenyl)acrylamide]	< 1	> 1000	< 100	< 20	< 20
C=CC(=O)Nc1ccc(Sc2ccnc(Nc3cccc(C#N)c3)n2)cc1 [Compound 118, N-(4-(2-(3-cyanophenylao)pyrimidin-4-ylthio)phenyl)acrylamide]	> 20	> 1000	< 100	> 20	< 5
CC#CC(=O)Nc1ccc(Sc2nc(Nc3ccc(N4CCOCC4)cc3)ncc2C)cc1 [Compound 125, N-(4-(5-methyl-2-(4-morpholinophenylao)pyrimidin-4-ylthio)phenyl)but-2-ynamide]	< 5	> 1000	< 100	> 20	< 20
N#CCC(=O)Nc1ccc(Sc2ccnc(Nc3ccc(N4CCC(N5CCCC5)CC4)cc3)n2)cc1 [Compound 88, 2-cyano-N-(4-(2-(4-(4-(pyrrolidin-1-yl)piperidin-1-yl)phenylao)pyrimidin-4-ylthio)phenyl)acetamide]	< 20	> 1000	< 500	< 5	< 5
C=CC(=O)Nc1ccc(Sc2ccnc(Nc3cccc(C(=O)OC)c3)n2)cc1 [Compound 356, methyl 3-(4-(4-acrylamidophenylthio)pyrimidin-2-ylao)benzoate]	< 5	> 1000	< 100	< 20	< 20
C=CC(=O)Nc1ccc(Sc2nc(Nc3cccc(OCCCO)c3)ncc2C)cc1 [Compound 301, N-(4-(2-(3-(3-hydroxypropoxy)phenylao)-5-methylpyrimidin-4-ylthio)phenyl)acrylamide]	< 1	> 1000	< 100	< 20	< 20
C=CC(=O)Nc1ccc(Sc2ccnc(Nc3ccc(S(=O)(=O)N4CCOCC4)c(OC)c3)n2)cc1 [Compound 373, N-(4-(2-(3-methoxy-4-(morpholinosulfonyl)phenylao)pyrimidin-4-ylthio)phenyl)acrylamide]	< 5	> 1000	< 100	< 5	< 5
C=CC(=O)Nc1ccc(Sc2ccnc(Nc3ccccc3)n2)cc1 [Compound 350, N-(4-(2-(phenylao)pyrimidin-4-ylthio)phenyl)acrylamide]	< 20	> 1000	< 100	> 20	< 20
Cc1cnc(Nc2ccc(N3CCOCC3)cc2)nc1Sc1ccc(NC(=O)COCC(=O)O)cc1 [Compound 188, 2-(2-(4-(5-methyl-2-(4-morpholinophenylao)pyrimidin-4-ylthio)phenylao)-2-oxoethoxy)acetic acid]	> 20	< 500	< 100	> 20	> 20
C=CC(=O)Nc1ccc(Sc2ccnc(Nc3cccc(S(=O)(=O)NCc4ccccc4)c3)n2)cc1 [Compound 366, N-(4-(2-(3-(N-benzylsulfamoyl)phenylao)pyrimidin-4-ylthio)phenyl)acrylamide]	< 5	> 1000	< 100	< 20	< 20
C=CC(=O)Nc1ccc(Sc2ccnc(Nc3ccc(S(=O)(=O)N4CCN(C)CC4)cc3)n2)cc1 [Compound 370, N-(4-(2-(4-(4-methylpiperazin-1-ylsulfonyl)phenylao)pyrimidin-4-ylthio)phenyl)acrylamide]	< 5	> 1000	< 100	< 20	< 20
Cc1cnc(Nc2ccc(N3CCOCC3)cc2)nc1Sc1ccc(C#N)cc1 [Compound 136, 4-(5-methyl-2-(4-morpholinophenylao)pyrimidin-4-ylthio)benzonitrile]	> 20	> 1000	< 500	> 20	> 20
COc1ccc(Nc2nccc(Sc3ccc(NC(=O)CC#N)cc3)n2)cc1OC [Compound 101, 2-cyano-N-(4-(2-(3,4-dimethoxyphenylao)pyrimidin-4-ylthio)phenyl)acetamide]	< 20	> 1000	> 1000	< 1	< 5
C=CC(=O)Nc1ccc(Sc2nc(Nc3ccc(CNS(C)(=O)=O)cc3)ncc2C)cc1 [Compound 294, N-(4-(5-methyl-2-(4-(methylsulfonamidomethyl)phenylao)pyrimidin-4-ylthio)phenyl)acrylamide]	< 1	> 1000	< 100	> 20	> 20
Nc1ccc(Sc2nc(Nc3ccc(N4CCOCC4)cc3)ncc2Cl)cc1 [Compound 318, 4-(4-aophenylthio)-5-chloro-N-(4-morpholinophenyl)pyrimidin-2-ae]	< 20	> 1000	< 100	< 20	> 20
C=C(CN1CCOCC1)C(=O)Nc1cccc(Sc2ccnc(Nc3ccc(N4CCOCC4)cc3)n2)c1 [Compound 328, 2-(morpholinomethyl)-N-(3-(2-(4-morpholinophenylao)pyrimidin-4-ylthio)phenyl)acrylamide]	< 5	> 1000	< 100	< 5	< 1
C=CC(=O)Nc1ccc(Sc2ccnc(Nc3ccc(S(=O)(=O)N4CCOCC4)cc3)n2)cc1 [Compound 367, N-(4-(2-(4-(morpholinosulfonyl)phenylao)pyrimidin-4-ylthio)phenyl)acrylamide]	< 20	> 1000	< 100	< 20	< 20
C=CC(=O)Nc1ccc(Sc2ccnc(Nc3ccc(S(N)(=O)=O)cc3)n2)cc1 [Compound 352, N-(4-(2-(4-sulfamoylphenylao)pyrimidin-4-ylthio)phenyl)acrylamide]	< 20	> 1000	< 100	> 20	< 20
C=CC(=O)Nc1ccc(Sc2nc(Nc3ccc(N4CCS(=O)(=O)CC4)cc3)ncc2C)cc1 [Compound 298, N-{4-[(2-{[4-(1,1-dioxo-1λ^6,4-thiomorpholin-4-yl)phenyl]ao}-5-methylpyrimidin-4-yl)sulfanyl]phenyl}prop-2-enamide]	< 1	> 1000	< 100	< 20	< 20
C=CC(=O)Nc1ccc(Sc2ccnc(Nc3cccc(S(=O)(=O)N4CCN(C)CC4)c3)n2)cc1 [Compound 365, N-(4-(2-(3-(4-methylpiperazin-1-ylsulfonyl)phenylao)pyrimidin-4-ylthio)phenyl)acrylamide]	< 20	> 1000	< 100	< 20	< 20
C=CC(=O)Nc1cccc(Nc2nccc(Sc3cccc(OC)c3)n2)c1 [Compound 31, N-(3-(4-(3-methoxyphenylthio)pyrimidin-2-ylao)phenyl)acrylamide]	< 1	> 1000	< 100	< 20	< 20
O=C(CCl)Nc1cccc(Sc2ccnc(Nc3ccc(N4CCOCC4)cc3)n2)c1 [Compound 332, 2-chloro-N-(3-(2-(4-morpholinophenylao)pyrimidin-4-ylthio)phenyl)acetamide]	< 5	> 1000	< 100	< 5	< 5
O=C(/C=C/Cl)Nc1ccc(Sc2ccnc(Nc3ccc(N4CCOCC4)cc3)n2)cc1 [Compound 342, (E)-3-chloro-N-(4-(2-(4-morpholinophenylao)pyrimidin-4-ylthio)phenyl)acrylamide]	< 20	> 1000	< 100	> 20	> 20
C=CC(=O)Nc1ccc(Sc2ccnc(Nc3cccc(OC)c3)n2)cc1 [Compound 105, N-(4-(2-(3-methoxyphenylao)pyrimidin-4-ylthio)phenyl)acrylamide]	< 20	> 1000	< 100	> 20	< 20
